“And” between values parts separate entries of the source, which are not always exact repeats. Equal entries are not always repeated.
Test system: Leishmania donovani
Assay: Leishmania intramacrophage assay
Assay type: functional, organism-based
Details: not given

| Structure (SMILES) | pIC50 |
| --- | --- |
| Cc1nc(C2(O)CCCNCC2)sc1CCOc1ccccc1Cl.Cl (centres undefined) | 5.014 |
| CCc1ccc(-c2ncc3c(n2)N(C)CCN(CCN(C)C)C3=O)cc1 | 4.813 |
| Cc1c(CN2CC[C@@H](N3CCC(O)CC3)[C@H](O)C2)[nH]c2ccc(Cl)cc12 | 4.995 |
| CCC(N)C(=O)N1CCC(OCc2ccc(Cl)c(Cl)c2)CC1.Cl (centres undefined) | 4.694 |
| COc1ccccc1CN(C)C(=O)CN1CC(n2nc(C)cc2C)C1 | 4.762 |
| Cc1nc(C2(O)CCCNCC2)sc1CCOc1ccccc1.Cl (centres undefined) | 4.482 |
| COCC(=O)Nc1ccnn1-c1ccc(Cl)cc1 | 4.861 |
| Cn1ncc2c(N3CCCC4(CCNC4)C3)nc(C(C)(C)C)nc21 (centres undefined) | 4.611 and 4.922 |
| Cl.NCC(=O)N1CCC(c2ccnc(Nc3cc(C(F)(F)F)ccn3)n2)C1 (centres undefined) | 4.798 |
| Cc1nc2c(c(NCc3ccc(-c4ccccn4)s3)n1)CCNCC2 | 4.913 |
| N#CC1CCCN(c2nc(-c3ccccc3)nc3c2CCNCC3)C1 (centres undefined) | 4.667 |
| CC(C)C[C@H](N)COc1cccc(F)c1Oc1ccccc1 | 4.696 |
| Clc1ccccc1-c1cc(CNc2ncnc3c2CCNCC3)no1 | 4.821 |

Same assay, conditions: Leishmania donovani

| Structure (SMILES) | IC50 [µM] |
| --- | --- |
| COc1ncccc1CNC(=O)C1=NN(c2ccccc2)C(=O)CN1 | > 50.1 |
| Cn1nc(COc2cccnc2)c2c1CCN(CC1CC1)C2 | > 50.1 |
| Cc1nc(C2(O)CCCNCC2)sc1CCOc1ccccc1Cl.Cl (centres undefined) | 12.5 |
| OCCN1CCC(F)(F)C2(CCN(c3cccnc3)C2)C1 (centres undefined) | > 50.1 |
| CCc1ccc(-c2ncc3c(n2)N(C)CCN(CCN(C)C)C3=O)cc1 | 10.3 |
| Cc1c(CN2CC[C@@H](N3CCC(O)CC3)[C@H](O)C2)[nH]c2ccc(Cl)cc12 | 10.7 |
| CC(C)OCCN1CCC(N2CCN(C)C2=O)CC1 | > 50.1 |
| c1cncc(COC[C@H]2CC[C@H]3[C@H](CCN3Cc3nccs3)O2)c1 | > 50.1 |
| c1ccc(C2CCN(c3cncc(-n4cccn4)n3)CC2)cc1 | > 50.1 |
| Cc1nc(NCc2nnc(C)n2C)c2c(CC(C)C)csc2n1 | > 50.1 |
| CC1CCCN(CC(=O)N2CCC(c3ncc4c(n3)CCNC4)CC2)C1 (centres undefined) | > 50.1 |
| CCN1CCCC(O)(c2nc(C)c(CCOc3ccccc3Cl)s2)CC1 (centres undefined) | > 50.1 |
| CCOc1cc(CNCCCn2ccnc2)cc(Cl)c1OC | 24.6 |
| NCC1CN(c2nc(-c3ccccc3)nc3c2CCNCC3)CCO1 (centres undefined) | > 50.1 |
| CN(C)C(=O)C1CCN(c2cncc(-n3cccn3)n2)CC1 | > 50.1 |
| CN1CCCC(Cc2cncc(Br)c2)CC1 (centres undefined) | > 50.1 |
| CC(C)n1nnc2c(sc3nc(N4CCOCC4)c4c(c32)CCC4)c1=O | > 50.1 |
| FC(F)(F)c1nc(NC2CCCC2)c2ccccc2n1 | > 50.1 |
| CCC(N)C(=O)N1CCC(OCc2ccc(Cl)c(Cl)c2)CC1.Cl (centres undefined) | 21.5 |
| CCCN(CCOC)c1nc(C)nc2sccc12 | > 50.1 |
| Cc1sc2nc(CCN)nc(N3CCC(N4CCCC4)CC3)c2c1C | > 50.1 |
| Cc1cc(CN2CCCC(Cn3cncn3)C2)on1 (centres undefined) | > 50.1 |
| CCC(=O)N1CCC(c2ncc3c(n2)CCNC3)CC1 | > 50.1 |
| c1nc(CCNc2nc(C3CC3)nc3c2CCNCC3)c[nH]1 | > 50.1 |
| CC1CCCN(Cc2coc(-c3cccc(F)c3)n2)C1 (centres undefined) | > 50.1 |

| Structure (SMILES) | IC50 [µM] |
| --- | --- |
| Cc1ccc(CN2CCC3(CC2)CC(N2CCN(C)CC2)CO3)s1 (centres undefined) | > 50.1 |
| CN(C)C(=O)c1ccc2ccc(N3CCN(CC4CC4)CC3)n2c1 | > 50.1 |
| Cc1c(-c2cc(C(F)F)nc3sc(C(N)=O)c(N)c23)cnn1C | > 50.1 |
| CO[C@H]1[C@@H]2CC[C@H]1CN(c1nc(C)nc3sccc13)C2 | > 50.1 |
| Cc1nc(NCc2noc(C3CCCO3)n2)c2ccsc2n1 (centres undefined) | > 50.1 |
| Cc1cc(N(C)CC2COc3ccccc3O2)nc(N)n1 (centres undefined) | > 50.1 |
| O=C(O)C1CCCN1c1nc(-c2ccc(Cl)cc2)cc(C(F)(F)F)n1 (centres undefined) | > 50.1 |
| Cc1nc2c(c(NCCc3nc4c(s3)CCCC4)n1)CCNCC2 | 44.3 |
| O=C(c1c[nH]cn1)N1CCC(F)(F)C2(CCN(c3cnccn3)C2)C1 (centres undefined) | > 50.1 |
| COc1ccccc1CN(C)C(=O)CN1CC(n2nc(C)cc2C)C1 | 19.1 |
| CNC(=O)[C@@H]1C[C@H]2CN(Cc3ccco3)C[C@H]2N1C | > 50.1 |
| CC(Cn1ccnc1)NCc1cc(Br)c2c(c1)OCO2 (centres undefined) | > 50.1 |
| CCn1cc(-c2cc(C(F)F)nc3sc(C(N)=O)c(N)c23)c(C)n1 | > 50.1 |
| CC(=O)NCc1nnc2n1CCN(c1nc(C)nc3sccc13)CC2 | > 50.1 |
| CC(NC(=O)NCCCn1ccnc1)c1ccc2c(c1)OCCCO2 (centres undefined) | > 50.1 |
| CCCC(=O)N1CCC(c2ncc3c(n2)CCNC3)CC1 | > 50.1 |
| Cc1ccc(N2CCC3(CN(Cc4ccncc4)CCC3(F)F)C2)nn1 (centres undefined) | > 50.1 |
| Cc1nc(NCc2nncn2C2CC2)c2c(CC(C)C)csc2n1 | > 50.1 |
| Cc1nc(C2(O)CCCNCC2)sc1CCOc1ccccc1.Cl (centres undefined) | 24.2 |
| CCOc1c(CNCCCn2ccnc2)cc(Cl)cc1OC | 27.5 |
| COCC(=O)Nc1ccnn1-c1ccc(Cl)cc1 | 13.5 |
| CN(Cc1ccncc1)C1COC2(CCN(Cc3ccsc3)CC2)C1 (centres undefined) | > 50.1 |
| Cn1ccnc1CN1CCC(F)(F)C2(CCN(c3cccnc3)C2)C1 (centres undefined) | > 50.1 |
| COC(=O)c1sc2nc3c(c(C(F)(F)F)c2c1N)CN(C(C)=O)CC3 | > 50.1 |
| CN(C)C1COC2(CCN(Cc3ccncc3)CC2)C1 (centres undefined) | > 50.1 |

| Structure (SMILES) | IC50 [µM] |
| --- | --- |
| Cn1cc(CN2CCC(F)(F)C3(CCN(c4cccc(F)c4)C3)C2)cn1 (centres undefined) | > 50.1 |
| Cc1nnc(NCC2(c3ccccc3)CCC2)c(C#N)c1C | > 50.1 |
| Cn1ccc(C(=O)N2CCCC(Cc3cccc4ncccc34)C2)n1 (centres undefined) | > 50.1 |
| COCc1nc(CNc2cccc(-c3ncon3)c2)cs1 | > 50.1 |
| COc1ccc(CNc2cnn(C)c(=O)c2Cl)cc1 | > 50.1 |
| Cn1ccnc1CN1CCC(F)(F)C2(CCN(c3cnccn3)C2)C1 (centres undefined) | > 50.1 |
| Cc1sc2nc(CCN)nc(N3CC(N4CCCCC4)C3)c2c1C | 23.7 |
| CN(CCc1noc(C2CC2)n1)C(=O)CN1C(=O)COc2ccccc21 | > 50.1 |
| Cc1ncc(CNc2cnccc2CO)s1 | > 50.1 |
| CC(Cn1cccn1)NC(=O)NCCc1cccnc1 (centres undefined) | > 50.1 |
| Cc1nccn1CCCn1cncc1-c1ccc2c(c1)CCCN2C | > 50.1 |
| Cc1cc(C(F)(F)F)nc(N2CCN3CCCC3C2)n1 (centres undefined) | > 50.1 |
| Cc1c(C(=O)O)sc2nc(Cc3ccccc3)nc(N)c12 | > 50.1 |
| Cc1nn(C)cc1-c1cc(C(F)(F)F)nc(NC2CCN(C)CC2)n1 | > 50.1 |
| COc1ccc(OCc2sc(C3(O)CCCNCC3)nc2C)cc1 (centres undefined) | > 50.1 |
| CC(=O)NC1CCCN(Cc2csc(-c3ncccn3)n2)C1 (centres undefined) | > 50.1 |
| CN(Cc1ccccc1)C1COC2(CCN(Cc3nccs3)CC2)C1 (centres undefined) | > 50.1 |
| c1cnc(-c2nc(CN3CCC(c4ccn[nH]4)CC3)cs2)nc1 | > 50.1 |
| COc1cccc(C(=O)NCc2ccccc2S(=O)(=O)N(C)C)c1 | > 50.1 |
| O=C(NCc1cccnc1)C1=NN(c2ccccc2)C(=O)CN1 | > 50.1 |
| O=C(c1cnccn1)N1CCC(F)(F)C2(CCN(c3ccccn3)C2)C1 (centres undefined) | > 50.1 |
| COc1ccc(OCCc2sc(C3(O)CCCNCC3)nc2C)cc1 (centres undefined) | > 50.1 |
| Cc1ccc2c(n1)N(Cc1cccnc1)CCN(Cc1cnn(C)c1)C2 | > 50.1 |
| CNS(=O)(=O)c1cccc(C(C)NCc2cccc(OC)c2)c1 (centres undefined) | > 50.1 |
| Cc1nn(C)cc1-c1cc(C(F)F)nc2sc(C(N)=O)c(N)c12 | > 50.1 |

| Structure (SMILES) | IC50 [µM] |
| --- | --- |
| CCN1CCCC(O)(c2nc(C)c(CCOc3ccc(F)cc3)s2)CC1 (centres undefined) | > 50.1 |
| COc1ccc(CNC(=O)C2=NN(c3ccc(C)cc3)C(=O)CN2)cc1 | > 50.1 |
| Cc1sc2nc(C(F)(F)F)nc(N3CCC(NS(C)(=O)=O)CC3)c2c1C | > 50.1 |
| COc1ccccc1C1(CNc2nnc(C)c(C)c2C#N)CCOCC1 | > 50.1 |
| Cl.NCC(=O)N1CCC(c2ccnc(Nc3cc(C(F)(F)F)ccn3)n2)C1 (centres undefined) | 15 |
| FC1(F)CCN(Cc2ccncc2)CC12CCN(c1cccnc1)C2 (centres undefined) | > 50.1 |
| Cc1nccn1CC1CCCN(C(=O)Cc2ccsc2)C1 (centres undefined) | > 50.1 |
| CN(C)CCNC(=O)c1ccc2ccc(N(C)CC3CC3)n2c1 | > 50.1 |
| FC1(F)CCN(c2ccccc2)CC12CCN(c1ncccn1)C2 (centres undefined) | > 50.1 |
| O=C(NCC(F)(F)F)c1ccncc1 | > 50.1 |
| O=C(CCc1cscn1)N1CCCC(n2ccnc2)C1 (centres undefined) | > 50.1 |
| O=C(O)CN1CCC(F)(F)C2(CCN(c3ccccn3)C2)C1 (centres undefined) | > 50.1 |
| CN(Cc1ccncc1)C1COC2(CCN(Cc3ccccn3)CC2)C1 (centres undefined) | > 50.1 |
| CCN1CCC2(C=C(C(=O)N(C)C)c3ccccc32)CC1 | > 50.1 |
| c1cnc(-c2nc(CN3CCCC(Cn4cncn4)C3)cs2)nc1 (centres undefined) | > 50.1 |
| Cc1cc(C(F)(F)F)nc(CCNc2nc(C)nc3sccc23)n1 | > 50.1 |
| CCN(CC)c1ccc2ccc(C(=O)NC3CC3)cn12 | > 50.1 |
| Cc1cnc(N2CCCC3(CCCN(C)C3)C2)nc1 (centres undefined) | > 50.1 |
| CC(C)CC(=O)N1CCN(Cc2csc(-c3ncccn3)n2)CC1 | > 50.1 |
| Cc1ccccc1C1(CNc2nnc(C)c(C)c2C#N)CCOCC1 | > 50.1 |
| Cc1sc2nc(CCN)nc(N3CCS(=O)(=O)CC3)c2c1C | > 50.1 |
| Cc1nc2c(c(NCc3ccc(-c4ccccn4)s3)n1)CCNCC2 | 17.9 |
| COc1cccc(CNCC2CN(C)CCO2)c1 (centres undefined) | > 50.1 |
| CC(C)n1ccnc1C1CCCN(c2ccccn2)C1 (centres undefined) | > 50.1 |
| COc1ccc(C(NCc2cccc(C#N)c2)C2CC2)cc1 (centres undefined) | > 50.1 |

| Structure (SMILES) | IC50 [µM] |
| --- | --- |
| Cc1sc2nc(C(F)(F)F)nc(N3CCCN(C)CC3)c2c1C | 46.2 |
| CCOc1ccc(Cl)cc1CNCCCn1ccnc1 | 38.5 |
| N#Cc1cccc(CNC(=O)C2=NN(c3ccccc3)C(=O)CN2)c1 | > 50.1 |
| O=C1NCCCC12CCN(c1nc3c(c(C(F)(F)F)n1)CCCC3)C2 (centres undefined) | > 50.1 |
| Cc1cc(C(F)(F)F)nc(N(C)Cc2c(C)noc2C)n1 | > 50.1 |
| c1cnc(-c2nc(CN3CCCN(Cc4cccs4)CC3)cs2)nc1 | > 50.1 |
| Cn1ncc2c1CN(Cc1ccc(F)cc1)CC2COCC1CC1 (centres undefined) | > 50.1 |
| O=C(CO)N1CCC(F)(F)C2(CCN(c3ccccc3)C2)C1 (centres undefined) | > 50.1 |
| Cn1nnc2c(sc3nc(N4CCOCC4)c4c(c32)CCC4)c1=O | > 50.1 |
| Cc1ccc(-c2ncc(CNc3cnccc3CO)s2)o1 | > 50.1 |
| CCN(CC)c1ccc2ccc(C(=O)N(C)C)cn12 | > 50.1 |
| Cc1ccc(N2CCCC(NCc3cscn3)C2)nn1 (centres undefined) | > 50.1 |
| CN(C)C1COC2(CCN(Cc3ccc4c(c3)OCO4)CC2)C1 (centres undefined) | > 50.1 |
| N#CC1CCCN(c2nc(-c3ccccc3)nc3c2CCNCC3)C1 (centres undefined) | 20.6 |
| COc1ccc(C(NCc2ccc(C#N)cc2)C2CC2)cc1 (centres undefined) | > 50.1 |
| CN1CCN(C2COC3(CCN(Cc4ccc(F)cc4)CC3)C2)CC1 (centres undefined) | > 50.1 |
| FC1(F)CCN(Cc2cccnc2)CC12CCN(c1ccccn1)C2 (centres undefined) | > 50.1 |
| Cc1nn(C)cc1-c1cc(C(F)(F)F)nc(NC2CCCCC2)n1 | > 50.1 |
| CC(C)C[C@H](N)COc1cccc(F)c1Oc1ccccc1 | 12.5 |
| COc1ccc(C(NCc2cccc(C#N)c2)C(C)C)cc1 (centres undefined) | > 50.1 |
| Clc1ccccc1-c1cc(CNc2ncnc3c2CCNCC3)no1 | 12 |

— ChEMBL document CHEMBL3988442, “University of Dundee, Small-Polar-MMV Screening Library” (2021)
